Entries after “also recorded” stand apart in the source; their conditions may differ.
Legend:
FXR [1] = target: T1, FXR (Homo sapiens, UniProt Q96RI1); experiment: GeneBLAzer FXR cell-based agonistic; conditions: compound alone, without GW4064; data not shown
T1 sequence (Q96RI1 262-486 limits assumed): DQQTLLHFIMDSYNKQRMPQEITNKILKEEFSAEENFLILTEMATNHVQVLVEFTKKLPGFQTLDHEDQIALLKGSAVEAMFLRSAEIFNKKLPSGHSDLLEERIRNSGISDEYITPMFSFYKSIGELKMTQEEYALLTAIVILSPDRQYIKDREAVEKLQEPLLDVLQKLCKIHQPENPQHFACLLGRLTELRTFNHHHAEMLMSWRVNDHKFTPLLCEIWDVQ

[2] = test system: GeneBLAzer FXR-UAS-bla HEK 293T cells; experiment: Cytotoxicity assay in GeneBLAzer FXR cells; assay type: cell-based, human
FXR [3] = target: T1, FXR; experiment: GeneBLAzer FXR cell-based antagonistic; conditions: data not shown
GST-hFXR-LBD = target: T2, GST-hFXR-LBD (Homo sapiens, UniProt Q96RI1); experiment: FXR TR-FRET binding assay; conditions: Table 3; ratio fits the TR-FRET binding IC50
T2 sequence (Q96RI1 262-486 limits assumed): T1 sequence (Q96RI1 262-486 limits assumed)

Compound	activity against FXR at 1 µM (FXR [3])	also measured
COc1cccc(Cn2cc(C(=O)Nc3ccc(C)c(S(=O)(=O)N4CCOCC4)c3)c(-c3ccc(C)cc3)n2)c1 [Compound 4j, 1-(3-Methoxybenzyl)-N-(4-methyl-3-(morpholinosulfonyl)phenyl)-3-(p-tolyl)-1H-pyrazole-4-carboxamide]		FXR agonistic activity (FXR [1]): no detectable; also recorded: no FXR agonistic activity; also recorded: does not have any; cytotoxicity [2]: no detectable; also recorded: no cytotoxicity; also recorded: does not have any
COc1cccc(Cn2cc(C(=O)N(C)c3ccc(C)c(S(=O)(=O)N4CCOCC4)c3)c(-c3cccc(OC)c3)n2)c1 [Compound 8c, 1-(3-Methoxybenzyl)-3-(3-methoxyphenyl)-N-methyl-N-(4-methyl-3-(morpholinosulfonyl)phenyl)-1H-pyrazole-4-carboxamide]	essentially inactive	
COc1cccc(Cn2cc(C(=O)N(C)c3ccc(C)c(S(=O)(=O)N4CCOCC4)c3)c(C(C)C)n2)c1 [Compound 8b, 3-Isopropyl-1-(3-methoxybenzyl)-N-methyl-N-(4-methyl-3-(morpholinosulfonyl)phenyl)-1H-pyrazole-4-carboxamide]	essentially inactive	
Cc1ccc(-c2nn(CC3CC3)cc2C(=O)Nc2ccc(C)c(S(=O)(=O)N3CCOCC3)c2)cc1 [Compound 4i, 1-(Cyclopropylmethyl)-N-(4-methyl-3-(morpholinosulfonyl)phenyl)-3-(p-tolyl)-1H-pyrazole-4-carboxamide]		fold decreased activity for FXR as compared to E16 (GST-hFXR-LBD): 2 fold
Cc1ccc(-c2nn(C(C)C)cc2C(=O)N(C)c2ccc(C)c(S(=O)(=O)N3CCOCC3)c2)cc1 [Compound 8a, 1-Isopropyl-N-methyl-N-(4-methyl-3-(morpholinosulfonyl)phenyl)-3-(p-tolyl)-1H-pyrazole-4-carboxamide]	essentially inactive	

From publication PMC4147378 (Bioorganic & medicinal chemistry, 2014)
